The nature of this data set: iron precipitation assay (removal of radioactive 55Fe2+ from buffer). The settings on record: compound 10 μM, 15 min. The data set is classed as physicochemical. As for the experimental part: Fig. 4 Chemical evidence of divalent metal complexation by hDMT1 inhibitors. (a and b) Isothermal titration calorimetry of pyrazole 13 (0.4 mM) with Cd^2+ (5 mM) in aqueous buffer pH 7.4 and pH 5.5, 25 °C. (c) Calcein quenching assay in aqueous buffer pH 5.5 (2 μM Fe^2+, 10 μM ligand, 1 μM calcein). Fe^2+ (2 μM), ascorbic acid (200 μM) and compounds (20 μM) were incubated for 5 min before the addition of calcein (1 μM) in Krebs buffer at pH 5.5. Fluorescence was measured after 5 min incubation. (d and e) Removal of radioactive ^55Fe^2+ from buffers upon incubation with ligands and centrifugation. ^55Fe^2+ (1 μM) precipitation upon interaction with the indicated compounds (10 μM). ^55Fe^2+ and the indicated compounds were incubated for 15 min, then, an aliquot of the solution supernatant was taken for determination of the remaining ^55Fe^2+. Data was normalized to the values obtained for the Fe^2+ + DMSO (0.1%) solution and represented as mean ± SD (N = 15; 2 independent experiments). Statistical differences were assessed using T-test or Mann–Whitney U test (Fe^2++ DMSO vs. each compound); p > 0.05 = ns; p < 0.05 = *; p < 0.001 = ***. […]
Iron precipitation assay. Polypropylene tubes containing uptake solution (140 mM NaCl, 2.5 mM KCl, 1 mM CaCl2, 1 mM MgCl2, 1.2 mM K2HPO4, 10 mM glucose, 5 mM HEPES, 5 mM MES, pH 7.4) supplemented with 1 µM Ferrous iron (Fe2+), 100 µM Ascorbic Acid, radiolabelled 55Fe2+ (0.5 µCi/mL) and 10 µM of the different compounds under study were incubated for 15 minutes at RT. Then, 10 µL aliquots from each tube were transferred in quadruplicate to a clear bottom, white -well, poly-D-lysine coated 96-well plate (Corning), and 55Fe2+ content was determined by scintillation counting as above described. […]
Statistics. Except when representative experiments are presented, results are shown as Mean ± Standard deviation (SD). Parametric distribution of the averaged values was assessed by […]

Data on five compounds can be found in article PMC7649969, “Pyrazolyl-pyrimidones inhibit the function of human solute carrier protein SLC11A2 (hDMT1) by metal chelation” (RSC Medicinal Chemistry, 2020).

The structures appear in SMILES notation. Entries after “also recorded” stand apart in the source; their conditions may differ.

Regarding `Cc1cc(O)nc(-n2nc(C)cc2C)n1` [Compound 5], the “precipitation of Fe2+” value (pH 7.4, 55Fe2+ 1 μM) was “had no effect”.

As to `Cc1cc(=O)[nH]c(-n2nc3c(c2C)CCCC3)n1` [Compound 13], for the setting “pH 7.4, 55Fe2+ 1 μM”, the “precipitation of Fe2+” value was “induced significant precipitation”.

Consider `N=C(N)SCc1cccc2c1oc1c(CSC(=N)N)cccc12` [Compound 1, reference compound], for which, for the setting “pH 7.4, 55Fe2+ 1 μM”, the “precipitation of Fe2+” value is given as “had no effect”.

In the case of `c1ccc(-c2ccccn2)nc1` [bipyridine], the “precipitation of Fe2+” value (pH 7.4, 55Fe2+ 1 μM) is recorded as “had no effect”.

`Cc1nn(-c2ccccn2)c(O)c1C(=O)Nc1cccc(C(F)(F)F)c1` [Compound 3, reference compound]: the “precipitation of Fe2+” value is given as “only observed precipitation with the literature inhibitor 3; also recorded: high precipitation of iron” (pH 5.5, 55Fe2+ 1 μM) and “induced significant precipitation” (pH 7.4, 55Fe2+ 1 μM).
